Measured values reported in patent publication US11702422B2, “Imidazopyridazines as modulators of IL-17” (Janssen Pharmaceutica NV, priority 2020, dated 2023).

Assays:
[1] = target: IL-17A(FLAG-Tagged): IL-17RA(His-Tagged) (Homo sapiens, UniProt Q16552, K93Q); assay: IL-17A(FLAG-Tagged): IL-17RA(His-Tagged) Binding Disruption Eu-HTRF Assay; settings: IL-17A/IL-17RA binding disruption, simple average if tested more than once
Method in brief: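 IC50 comes from a one-site competition fit of the HTRF 665/620 nm ratio. Compound dilutions (2-fold, 22 points) were held 1 h rt with FLAG-tagged IL-17A dimer, then His-tagged IL-17RA plus Eu-cryptate anti-FLAG and D2 anti-His antibodies were added for 2 h rt.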

[2] = system: IL-17A-induced G-CSF production in human normal keratinocyte (NHK); assay: NHK Assay: IL-17A-induced G-CSF production in human normal keratinocytes; assay type: cell-based; settings: 24 h, adult normal human keratinocytes, IL-17A 5 ng/mL, simple average if tested more than once
Method in brief: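 IL-17A (5 ng/mL final) was pre-incubated 1 h at rt with titrated compound and then added to adult normal human keratinocytes (5% FBS, 0.2% DMSO) for 24 h at 37° C. Supernatant G-CSF was measured by HTRF against a standard curve to derive IC50. Viability was checked by CellTiter-Glo.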

UniProt Q16552, sequence (Q16552 with tags, fused parts or gaps K93Q): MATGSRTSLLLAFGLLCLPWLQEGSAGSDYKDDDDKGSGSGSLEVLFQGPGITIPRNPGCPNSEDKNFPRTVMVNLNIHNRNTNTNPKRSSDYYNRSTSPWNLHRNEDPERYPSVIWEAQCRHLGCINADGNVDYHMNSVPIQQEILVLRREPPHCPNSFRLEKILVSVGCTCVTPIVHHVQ

| IC50 [1] [nM] | SMILES | IC50 ([2]; Homo sapiens, Keratinocyte) [nM] | IC50 [2] [nM] |
| --- | --- | --- | --- |
| 48 | Cc1nocc1C(=O)N[C@H](c1cn2ncc([C@H](NC(=O)CC3CC(F)(F)C3)C3CC3)cc2n1)C1CCC(F)(F)CC1 [Example 120, N—((S)-(7-((R)-Cyclopropyl(2-(3,3-difluorocyclobutyl)acetamido)methyl)imidazo[1,2-b]pyridazin-2-yl)(4,4-difluorocyclohexyl)methyl)-3-methylisoxazole-4-carboxamide] | 150 |  |
| 270 | CC(C)n1nccc1C(=O)N[C@H](c1cn2ncc([C@H](NC(=O)C[C@@H](O)C(F)(F)F)C3CC3)cc2n1)C1CCC(F)(F)CC1 (relative stereo) [Example 130, N—((S)-(7-((R*)-Cyclopropyl((R*)-4,4,4-trifluoro-3-hydroxybutanamido)methyl)imidazo[1,2-b]pyridazin-2-yl)(4,4-difluorocyclohexyl)methyl)-1-isopropyl-1H-pyrazole-5-carboxamide] | 390 |  |
| 170 | [2H]C([2H])([2H])C([2H])([2H])n1nccc1C(=O)N[C@@H](CC(C)(C)C(F)(F)F)c1cn2ncc([C@H](NC(=O)CC3CC(F)(F)C3)C3CC3)cc2n1 [Example 545, N—((S)-1-(7-((R)-Cyclopropyl(2-(3,3-difluorocyclobutyl)acetamido)methyl)imidazo[1,2-b]pyridazin-2-yl)-4,4,4-trifluoro-3,3-dimethylbutyl)-1-(ethyl-d5)-1H-pyrazole-5-carboxamide] | 150 |  |
| 130 | CC(C)n1nccc1C(=O)N[C@@H](COC(C)(C)C(F)(F)F)c1cn2ncc([C@H](NC(=O)CC3CC(F)(F)C3)C3CCOCC3)cc2n1 [Example 541, N—((R)-1-(7-((R)-(2-(3,3-Difluorocyclobutyl)acetamido)(tetrahydro-2H-pyran-4-yl)methyl)imidazo[1,2-b]pyridazin-2-yl)-2-((1,1,1-trifluoro-2-methylpropan-2-yl)oxy)ethyl)-1-isopropyl-1H-pyrazole-5-carboxamide] | 29 |  |
| 130 | O=C(CCC(F)(F)F)N[C@@H](c1cnn2cc([C@@H](NC(=O)c3ncnn3CCC(F)F)C3CCC(F)(F)CC3)nc2c1)C1CC1 [Example 46, N—((S)-(7-((R)-Cyclopropyl(4,4,4-trifluorobutanamido)methyl)imidazo[1,2-b]pyridazin-2-yl)(4,4-difluorocyclohexyl)methyl)-1-(3,3-difluoropropyl)-1H-1,2,4-triazole-5-carboxamide] | 640 |  |
| 52 | Cc1nonc1C(=O)N[C@H](c1cn2ncc([C@H](NC(=O)C(F)CC3CC3)C3CC3)cc2n1)C1CCC(F)(F)CC1 (single isomer, unassigned) [Example 344, N—((S)-(7-((R)-Cyclopropyl((R*)-3-cyclopropyl-2-fluoropropanamido)methyl)imidazo[1,2-b]pyridazin-2-yl)(4,4-difluorocyclohexyl)methyl)-4-methyl-1,2,5-oxadiazole-3-carboxamide] |  | 230 |
| 43 | CCOc1nonc1C(=O)N[C@H](c1cn2ncc([C@H](NC(=O)CC3CC(F)(F)C3)C3CC3)cc2n1)C1CCC(F)(F)CC1 [Example 391, N—((S)-(7-((R)-Cyclopropyl(2-(3,3-difluorocyclobutyl)acetamido)methyl)imidazo[1,2-b]pyridazin-2-yl)(4,4-difluorocyclohexyl)methyl)-4-ethoxy-1,2,5-oxadiazole-3-carboxamide] | 47 |  |
| 90 | CC(C)n1nccc1C(=O)N[C@H](c1cn2ncc([C@H](NC(=O)CC3CCC3)C3CC3)cc2n1)C1CCC(F)(F)CC1 [Example 246, N—((S)-(7-((R)-(2-Cyclobutylacetamido)(cyclopropyl)methyl)imidazo[1,2-b]pyridazin-2-yl)(4,4-difluorocyclohexyl)methyl)-1-isopropyl-1H-pyrazole-5-carboxamide] | 41 |  |
| 200 | [2H]C([2H])([2H])C([2H])([2H])n1nccc1C(=O)N[C@H](c1cn2ncc(C(CC)NC(=O)CC3CC(F)(F)C3)cc2n1)C1CCC(F)(F)CC1 (single isomer, unassigned) [Example 506, N—((S)-(7-((R*)-1-(2-(3,3-Difluorocyclobutyl)acetamido)propyl)imidazo[1,2-b]pyridazin-2-yl)(4,4-difluorocyclohexyl)methyl)-1-(ethyl-d5)-1H-pyrazole-5-carboxamide] | 130 |  |
| 440 | CC(C)n1nccc1C(=O)N[C@H](c1cn2ncc(C(NC(=O)CC3CC(F)(F)C3)C3CCOCC3)cc2n1)C1CCC(F)(F)CC1 (single isomer, unassigned) [Example 535, N—((S)-(7-((R*)-1-(2-(3,3-Difluorocyclobutyl)acetamido)(tetrahydro-2H-pyran-4-yl)methyl)imidazo[1,2-b]pyridazin-2-yl)(4,4-difluorocyclohexyl)methyl)-1-isopropyl-1H-pyrazole-5-carboxamide] | 89 |  |

Continued, molecule first:

| SMILES | IC50 [1] [nM] | IC50 ([2]; Homo sapiens, Keratinocyte) [nM] | IC50 [2] [nM] |
| --- | --- | --- | --- |
| Cc1nonc1C(=O)N[C@H](c1cn2ncc(C(NC(=O)C(F)(F)CC3CC3)C3(C#N)CC3)cc2n1)C1CCC(F)(F)CC1 (single isomer, unassigned) [Example 435, N—((S)-(7-((R*)-(1-Cyanocyclopropyl)(3-cyclopropyl-2,2-difluoropropanamido)methyl)imidazo[1,2-b]pyridazin-2-yl)(4,4-difluorocyclohexyl)methyl)-4-methyl-1,2,5-oxadiazole-3-carboxamide] | 3800 | > 20000 |  |
| O=C(CCC(F)(F)F)N[C@@H](c1cnn2cc([C@@H](NC(=O)c3ccnc(CC(F)(F)F)c3)C3CCC(F)(F)CC3)nc2c1)C1CC1 [Example 74, N—((S)-(7-((R)-Cyclopropyl(4,4,4-trifluorobutanamido)methyl)imidazo[1,2-b]pyridazin-2-yl)(4,4-difluorocyclohexyl)methyl)-2-(2,2,2-trifluoroethyl)isonicotinamide] | 120 | 58 |  |
| CCn1ncnc1C(=O)N[C@H](c1cn2ncc([C@H](NC(=O)CCC(F)(F)F)C3CC3)cc2n1)C1CCC(F)(F)CC1 [Example 106, N—((S)-(7-((R)-Cyclopropyl(4,4,4-trifluorobutanamido)methyl)imidazo[1,2-b]pyridazin-2-yl)(4,4-difluorocyclohexyl)methyl)-1-ethyl-1H-1,2,4-triazole-5-carboxamide] | 130 | 830 |  |
| Nc1nonc1C(=O)N[C@H](c1cn2ncc([C@H](NC(=O)CCC(F)(F)F)C3CC3)cc2n1)C1CCC(F)(F)CC1 [Example 370, 4-Amino-N—((S)-(7-((R)-cyclopropyl(4,4,4-trifluorobutanamido)methyl)imidazo[1,2-b]pyridazin-2-yl)(4,4-difluorocyclohexyl)methyl)-1,2,5-oxadiazole-3-carboxamide] | 140 | 470 |  |
| O=C(CCC(F)(F)F)N[C@H](c1cnn2cc([C@H](NC(=O)c3conc3C3CCCC3)C3CCC(F)(F)CC3)nc2c1)C1CC1 (stereo in doubt) [Example 117, 3-Cyclopentyl-N—((R)-(7-((S)-cyclopropyl(4,4,4-trifluorobutanamido)methyl)imidazo[1,2-b]pyridazin-2-yl)(4,4-difluorocyclohexyl)methyl)isoxazole-4-carboxamide] | 49 | 120 |  |
| CC(C)n1nccc1C(=O)N[C@@H](CC(C)(C)C(F)(F)F)c1cn2ncc([C@H](NC(=O)CC3CC(F)(F)C3)C3CC3)cc2n1 [Example 543, N—((S)-1-(7-((R)-Cyclopropyl(2-(3,3-difluorocyclobutyl)acetamido)methyl)imidazo[1,2-b]pyridazin-2-yl)-4,4,4-trifluoro-3,3-dimethylbutyl)-1-isopropyl-1H-pyrazole-5-carboxamide] | 180 | 72 |  |
| Cc1nonc1C(=O)N[C@H](c1cn2ncc(C(CC3CCC3)NC(=O)CC3CC(F)(F)C3)cc2n1)C1CCC(F)(F)CC1 (single isomer, unassigned) [Example 438, N—((S)-(7-((R*)-2-Cyclobutyl-1-(2-(3,3-difluorocyclobutyl)acetamido)ethyl)imidazo[1,2-b]pyridazin-2-yl)(4,4-difluorocyclohexyl)methyl)-4-methyl-1,2,5-oxadiazole-3-carboxamide] | 470 |  | 8000 |
| O=C(CCC(F)(F)F)N[C@@H](c1cnn2cc([C@@H](NC(=O)c3cnn(CCNCC(F)(F)CCl)n3)C3CCC(F)(F)CC3)nc2c1)C1CC1 [Example 486, 2-[2-[(3-Chloro-2,2-difluoro-propyl)amino]ethyl]-N—[(S)-[7-[(R)-cyclopropyl-(4,4,4-trifluorobutanamido)methyl]imidazo[1,2-b]pyridazin-2-yl]-(4,4-difluorocyclohexyl)methyl]triazole-4-carboxamide] | 300 | 1100 |  |
| Cc1ccccc1C(=O)N[C@H](c1cn2ncc([C@H](NC(=O)CCC(F)(F)F)C3CC3)cc2n1)C1CCC(F)(F)CC1 [Example 40, N—((S)-(7-((R)-Cyclopropyl(4,4,4-trifluorobutanamido)methyl)imidazo[1,2-b]pyridazine-2-yl)(4,4-difluorocyclohexyl)methyl)-2-methylbenzamide] | 410 | 1200 |  |
| CC(C)n1nccc1C(=O)N[C@H](c1cn2ncc([C@H](NC(=O)C[C@](C)(O)C(F)(F)F)C3CC3)cc2n1)C1CCC(F)(F)CC1 (relative stereo) [Example 133, N—((S)-(7-((R*)-Cyclopropyl((S*)-4,4,4-trifluoro-3-hydroxy-3-methylbutanamido)methyl)imidazo[1,2-b]pyridazin-2-yl)(4,4-difluorocyclohexyl)methyl)-1-isopropyl-1H-pyrazole-5-carboxamide] | 150 | 360 |  |
